According to patent publication US20140378460A1, “COMPOSITIONS AND METHODS FOR TREATING NEURODEGENERATIVE DISEASE” (COGNITION THERAPEUTICS, INC., priority 2011, published 2014):
Like-named read-outs stand apart in the source and are kept apart here.

Legend:
muscarinic M1, 2, D2 = conditions: cited from earlier work
VAChT = VAChT (Homo sapiens, UniProt Q16572); conditions: cited from earlier work
Sigma-1 receptors [1] = conditions: cited from earlier work; for Ki: Table 11E, clinical compounds, first figure of S1/S2, read-out: Sigma Affinity (S1)
Sigma-2 receptors = conditions: cited from earlier work; for Ki: Table 11E, clinical compounds, second figure of S1/S2, read-out: Sigma Affinity (S2)
alpha1 AR, 5-HT1a/2, H1 = conditions: cited from earlier work
neuronal cultures = assay: Neuronal nuclear intensity / morphology; conditions: 24 hours
[2] = system: Abeta oligomer-induced membrane trafficking deficits in primary hippocampal neurons; assay: Membrane trafficking/exocytosis (MTT) assay; type: cell-based, rat
Method: The methods used to generate the results were as follows in the Membrane Trafficking/Exocytosis (MTT) assay.
Primary hippocampal neurons from E18 Sprague-Dawley rat embryos were plated at optimized concentrations in 384 well plates in NB media (Invitrogen). Neurons were maintained in cultures for 3 weeks, with twice weekly feeding of NB media with N2 supplement (Invitrogen).
A test compound was added to cells at concentrations ranging from 100 uM to 0.001 nM followed by addition of vehicle or Abeta oligomer preparations (3 μM total Abeta protein concentration), and incubated for 1 to 24 hr at 37° C. in 5% CO2. MTT reagent (3-(4,5-dimethylthizaol-2-yl)-2,5diphenyl tetrazolium bromide) (Roche Molecular Biochemicals) was reconstituted in phosphate buffered saline to 5 mg/mL. 10 μl, of MTT labeling reagent is added to each well and incubated at 37° C. for 1 h, then imaged. Exocytosis was assessed by automated microscopy and image processing to quantify the amount of endocytosed and exocytosed formazan.
Each assay plate was formatted so that compounds are tested with and without Abeta oligomer on each plate.

alpha 1A, 1B = conditions: cited from earlier work
Sigma-1 receptors [3] = target: T1, Sigma-1 receptors (UniProt Q60492); conditions: cited from earlier work
T1 construct: other: known prior art compounds, published studies

[4] = system: caspase-3 in SKOV-3 human ovarian cancer cells; assay: Caspase-3 activity in tumor cells; type: cell-based
sigma-2 receptor [5] = conditions: 1 μM each; 18.4 nM [3H]-RHM-1
[6] = system: caspase-3 in neuronal cultures; assay: Caspase-3 activity in neurons; type: cell-based
D2 = D2 (Homo sapiens, UniProt P14416); conditions: cited from earlier work
[7] = system: SKOV-3 human ovarian cancer cell line; assay: MTS tumor cell viability assay; type: cell-based; conditions: by EC50 relative to siramesine
Method: The cytotoxicity of compounds shown below was determined using the CellTiter96 Aqueous One Solution Assay (Promega, Madison, Wis.). […] The plate was read at 490 nm in a Victor3 plate reader (PerkinElmer Life and Analytical Sciences, Shelton, Conn.). The EC^50 value, defined as the concentration of the sigma ligand required to inhibit cell viability by 50% relative to untreated cells, was determined from the dose response curve for each cell line.

5-HT2A, B, C = conditions: cited from earlier work
Adrenergic transporter = Adrenergic transporter (Homo sapiens, UniProt P23975); conditions: cited from earlier work
Sequence of Adrenergic transporter (P23975 whole entry): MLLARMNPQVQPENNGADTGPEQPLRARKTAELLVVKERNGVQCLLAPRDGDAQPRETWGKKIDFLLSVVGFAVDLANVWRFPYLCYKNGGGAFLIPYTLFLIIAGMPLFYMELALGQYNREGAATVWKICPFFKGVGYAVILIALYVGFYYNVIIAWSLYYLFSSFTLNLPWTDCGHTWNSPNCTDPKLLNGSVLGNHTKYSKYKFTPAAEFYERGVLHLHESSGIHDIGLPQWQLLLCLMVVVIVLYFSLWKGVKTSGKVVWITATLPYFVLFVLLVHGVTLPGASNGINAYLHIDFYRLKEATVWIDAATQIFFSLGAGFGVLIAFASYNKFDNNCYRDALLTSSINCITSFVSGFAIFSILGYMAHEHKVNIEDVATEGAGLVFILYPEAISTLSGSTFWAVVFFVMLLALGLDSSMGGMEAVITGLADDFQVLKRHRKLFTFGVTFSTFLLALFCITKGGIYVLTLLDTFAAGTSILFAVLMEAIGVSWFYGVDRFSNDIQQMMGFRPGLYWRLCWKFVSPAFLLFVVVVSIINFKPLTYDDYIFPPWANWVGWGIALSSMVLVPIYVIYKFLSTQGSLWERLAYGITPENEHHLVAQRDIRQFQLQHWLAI

Dopamine transporter = Dopamine transporter (Homo sapiens, UniProt Q01959); conditions: cited from earlier work
Sequence of Dopamine transporter (Q01959 whole entry): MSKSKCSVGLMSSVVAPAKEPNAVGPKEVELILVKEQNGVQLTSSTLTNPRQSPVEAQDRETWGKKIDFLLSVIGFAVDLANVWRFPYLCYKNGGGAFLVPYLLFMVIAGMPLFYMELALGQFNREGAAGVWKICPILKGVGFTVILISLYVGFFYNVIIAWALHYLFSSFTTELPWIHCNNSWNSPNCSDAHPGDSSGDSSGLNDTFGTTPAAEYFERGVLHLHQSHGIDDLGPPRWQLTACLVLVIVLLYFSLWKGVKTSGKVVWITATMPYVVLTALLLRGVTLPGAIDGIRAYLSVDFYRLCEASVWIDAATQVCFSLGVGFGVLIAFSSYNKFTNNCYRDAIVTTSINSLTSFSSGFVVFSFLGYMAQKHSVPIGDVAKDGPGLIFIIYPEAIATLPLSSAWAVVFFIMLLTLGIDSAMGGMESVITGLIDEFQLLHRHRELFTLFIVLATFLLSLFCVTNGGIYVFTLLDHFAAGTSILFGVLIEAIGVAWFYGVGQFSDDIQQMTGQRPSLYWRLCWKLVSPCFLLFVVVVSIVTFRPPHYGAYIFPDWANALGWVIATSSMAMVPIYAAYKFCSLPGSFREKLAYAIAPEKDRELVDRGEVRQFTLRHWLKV

serotonin transporter = serotonin transporter (Homo sapiens, UniProt P31645); conditions: cited from earlier work
NMDAR2B = NMDAR2B (Homo sapiens, UniProt Q13224); conditions: cited from earlier work
Sequence of NMDAR2B (Q13224 27-1484, species assumed, other chains not shown): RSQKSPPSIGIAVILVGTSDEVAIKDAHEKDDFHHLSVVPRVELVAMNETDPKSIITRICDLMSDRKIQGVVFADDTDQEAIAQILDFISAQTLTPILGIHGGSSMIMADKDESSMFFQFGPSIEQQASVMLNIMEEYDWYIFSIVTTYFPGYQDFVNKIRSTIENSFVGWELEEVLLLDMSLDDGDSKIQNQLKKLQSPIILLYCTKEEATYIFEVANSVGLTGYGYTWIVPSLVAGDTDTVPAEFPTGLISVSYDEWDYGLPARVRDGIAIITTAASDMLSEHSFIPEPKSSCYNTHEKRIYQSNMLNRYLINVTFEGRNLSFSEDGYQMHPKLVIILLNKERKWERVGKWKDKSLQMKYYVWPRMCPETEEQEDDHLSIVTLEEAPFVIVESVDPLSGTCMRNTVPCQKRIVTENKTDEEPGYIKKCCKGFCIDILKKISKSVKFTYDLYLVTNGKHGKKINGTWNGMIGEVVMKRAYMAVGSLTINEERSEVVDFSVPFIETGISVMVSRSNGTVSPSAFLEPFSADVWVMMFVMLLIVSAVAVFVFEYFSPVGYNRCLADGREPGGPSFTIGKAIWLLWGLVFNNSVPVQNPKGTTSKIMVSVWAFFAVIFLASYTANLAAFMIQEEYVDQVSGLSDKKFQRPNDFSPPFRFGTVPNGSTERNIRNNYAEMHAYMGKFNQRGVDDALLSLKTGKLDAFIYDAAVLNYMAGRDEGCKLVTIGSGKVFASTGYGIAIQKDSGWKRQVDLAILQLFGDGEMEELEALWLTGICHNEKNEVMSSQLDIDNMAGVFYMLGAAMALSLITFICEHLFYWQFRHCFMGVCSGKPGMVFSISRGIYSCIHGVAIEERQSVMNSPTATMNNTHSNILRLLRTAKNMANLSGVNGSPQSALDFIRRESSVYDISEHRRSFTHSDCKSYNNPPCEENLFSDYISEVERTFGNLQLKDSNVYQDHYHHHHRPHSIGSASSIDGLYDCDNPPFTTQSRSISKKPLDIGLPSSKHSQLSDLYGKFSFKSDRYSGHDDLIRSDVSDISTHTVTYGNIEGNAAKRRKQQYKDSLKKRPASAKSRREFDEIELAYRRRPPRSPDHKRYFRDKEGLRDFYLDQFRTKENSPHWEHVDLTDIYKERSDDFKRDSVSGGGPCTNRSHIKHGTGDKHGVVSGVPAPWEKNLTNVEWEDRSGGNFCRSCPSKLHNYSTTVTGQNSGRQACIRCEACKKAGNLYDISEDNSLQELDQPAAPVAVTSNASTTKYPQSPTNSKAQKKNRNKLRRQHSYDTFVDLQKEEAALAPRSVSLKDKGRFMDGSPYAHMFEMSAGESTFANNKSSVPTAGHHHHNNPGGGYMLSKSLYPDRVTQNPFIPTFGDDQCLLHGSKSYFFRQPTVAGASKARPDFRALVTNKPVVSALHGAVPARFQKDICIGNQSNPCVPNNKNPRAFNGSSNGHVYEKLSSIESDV

NMDAR2A = NMDAR2A (Homo sapiens, UniProt Q12879); conditions: cited from earlier work
Sequence of NMDAR2A (Q12879 23-1464, other chains not shown): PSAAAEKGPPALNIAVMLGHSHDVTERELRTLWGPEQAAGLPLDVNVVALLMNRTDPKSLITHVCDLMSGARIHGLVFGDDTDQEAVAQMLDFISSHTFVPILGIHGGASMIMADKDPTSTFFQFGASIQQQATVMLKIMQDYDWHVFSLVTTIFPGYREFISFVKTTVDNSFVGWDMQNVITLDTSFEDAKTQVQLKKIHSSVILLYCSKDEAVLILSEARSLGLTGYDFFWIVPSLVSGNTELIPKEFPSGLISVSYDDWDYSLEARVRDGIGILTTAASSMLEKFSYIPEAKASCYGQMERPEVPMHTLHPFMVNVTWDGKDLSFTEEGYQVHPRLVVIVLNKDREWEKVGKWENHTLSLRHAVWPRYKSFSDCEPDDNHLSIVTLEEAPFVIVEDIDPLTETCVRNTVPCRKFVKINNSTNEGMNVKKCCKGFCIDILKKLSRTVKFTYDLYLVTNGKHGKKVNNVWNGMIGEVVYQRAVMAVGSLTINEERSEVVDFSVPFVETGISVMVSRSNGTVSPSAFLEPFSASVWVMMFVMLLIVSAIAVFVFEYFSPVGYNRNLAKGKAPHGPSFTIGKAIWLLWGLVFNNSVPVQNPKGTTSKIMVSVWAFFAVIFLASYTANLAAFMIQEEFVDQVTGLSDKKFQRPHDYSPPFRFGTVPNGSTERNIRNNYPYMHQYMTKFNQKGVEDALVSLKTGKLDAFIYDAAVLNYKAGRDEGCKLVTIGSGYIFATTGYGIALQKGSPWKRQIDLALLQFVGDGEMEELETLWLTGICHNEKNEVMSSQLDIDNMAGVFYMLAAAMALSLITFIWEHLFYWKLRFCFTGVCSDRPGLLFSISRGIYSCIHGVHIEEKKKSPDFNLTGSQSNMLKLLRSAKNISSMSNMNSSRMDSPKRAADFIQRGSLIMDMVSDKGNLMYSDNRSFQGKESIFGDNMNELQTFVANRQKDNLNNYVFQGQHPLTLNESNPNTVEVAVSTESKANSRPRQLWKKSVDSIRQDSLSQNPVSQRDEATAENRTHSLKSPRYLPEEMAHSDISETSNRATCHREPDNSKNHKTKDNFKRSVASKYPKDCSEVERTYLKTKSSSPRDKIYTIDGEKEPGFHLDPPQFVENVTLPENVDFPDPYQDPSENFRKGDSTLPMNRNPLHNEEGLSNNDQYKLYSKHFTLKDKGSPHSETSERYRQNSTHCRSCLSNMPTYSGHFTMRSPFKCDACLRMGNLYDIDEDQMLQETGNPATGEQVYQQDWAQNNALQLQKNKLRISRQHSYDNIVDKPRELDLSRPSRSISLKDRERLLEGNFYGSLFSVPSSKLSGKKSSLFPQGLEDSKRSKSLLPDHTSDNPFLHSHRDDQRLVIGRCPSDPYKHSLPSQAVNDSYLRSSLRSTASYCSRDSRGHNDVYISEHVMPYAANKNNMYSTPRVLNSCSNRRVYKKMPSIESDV

PCP = conditions: cited from earlier work
sigma-2 receptor [8] = target: T2, sigma-2 receptor (Rattus norvegicus, UniProt Q5U3Y7); design: other: known prior art compounds, published studies; conditions: read-out: S2 binding Ki; Table 11C; cited from earlier work
T2 sequence (Q5U3Y7 1-176): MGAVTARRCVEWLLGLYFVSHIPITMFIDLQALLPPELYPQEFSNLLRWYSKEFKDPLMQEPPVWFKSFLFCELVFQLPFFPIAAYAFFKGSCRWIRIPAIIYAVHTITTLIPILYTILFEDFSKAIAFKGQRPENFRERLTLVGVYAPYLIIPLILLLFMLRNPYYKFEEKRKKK

[9] = Rattus norvegicus, Hippocampal neuron, Table 11C, known prior art compounds, read-out: Inhibition Abeta oligomer-induced Membrane Trafficking EC50

Sequence of VAChT (Q16572 whole entry, species assumed): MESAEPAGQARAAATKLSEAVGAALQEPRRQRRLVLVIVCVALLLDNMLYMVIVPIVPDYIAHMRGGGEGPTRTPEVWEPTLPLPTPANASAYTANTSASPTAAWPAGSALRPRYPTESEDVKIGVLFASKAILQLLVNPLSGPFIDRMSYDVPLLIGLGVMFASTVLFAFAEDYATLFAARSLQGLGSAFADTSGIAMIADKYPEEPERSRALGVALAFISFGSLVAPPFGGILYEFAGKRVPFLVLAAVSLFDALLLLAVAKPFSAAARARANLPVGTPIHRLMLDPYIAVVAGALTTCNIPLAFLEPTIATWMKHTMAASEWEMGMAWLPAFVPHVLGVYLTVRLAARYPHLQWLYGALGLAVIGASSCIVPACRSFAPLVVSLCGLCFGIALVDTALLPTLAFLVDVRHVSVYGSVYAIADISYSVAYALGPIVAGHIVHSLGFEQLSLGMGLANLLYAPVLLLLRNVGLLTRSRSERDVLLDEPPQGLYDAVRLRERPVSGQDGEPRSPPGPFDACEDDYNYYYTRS

COc1ccc(CCN2CCN(CCCc3ccccc3)CC2)cc1OC.Cl.Cl [Cutamesine, Cutamesine dihydrochloride]
Other Targets: muscarinic M1, 2, D2 (muscarinic M1, 2, D2): D2 (2 uM), alpha1
Other Targets: VAChT (VAChT): VAChT(50 nM),
Ki (Sigma-1 receptors [1]): 17 nM
Ki (Sigma-2 receptors): > 1800 nM
Other Targets: alpha1 AR, 5-HT1a/2, H1 (alpha1 AR, 5-HT1a/2, H1): (2 uM)

Fc1ccc(-n2cc(CCCCN3CCC4(CC3)OCc3ccccc34)c3ccccc32)cc1 [siramesine]
Nuclear morphology / nuclear intensity in neurons (neuronal cultures): caused significant abnormal nuclear morphology
Effect on Abeta oligomer trafficking deficits over the concentrations tested [2]: blocks Abeta oligomer trafficking deficits at low concentrations, but causes cellular toxicity at high concentrations
EC50 [2, 9]: 1.3 µM
Functional Neuronal Phenotype ([2]; Table 11C): Agonist
Other Targets: alpha 1A, 1B (alpha 1A, 1B): 1A, 1B (300 nM)
Ki (Sigma-1 receptors [3]; read-out: S1 binding Ki, Table 11C): 19 nM
Ki (Sigma-1 receptors [3]; read-out: Sigma 1 Binding Ki, known prior art compounds, published studies): 19 nM
Caspase-3 activity induced in tumor cells [4]: induced caspase-3 activity
Displacement of [3H]-RHM-1 (sigma-2 receptor [5]): partially displace
Sigma 2 type of activity (Sigma-2 receptors; in brackets after the Ki): agonist
Caspase-3 activity induced in neurons [6]: induced
Other Targets: D2 (D2): D2 (800 nM), alpha
Action [7]: Full agonist

OCCN1CCN(CCCN2c3ccccc3C=Cc3ccccc32)CC1 [Opipramol]
Other Targets: 5-HT2A, B, C (5-HT2A, B, C): 5-HT2A, B, C (120 nM
Other Targets: alpha 1A, 1B (alpha 1A, 1B): 1A, 1B(200 nM)
Ki (Sigma-1 receptors [1]): 7 nM
Ki (Sigma-2 receptors): 56 nM

COCCCC/C(=N\OCCN)c1ccc(C(F)(F)F)cc1 [Fluvoxamine, fluvoxamine]
Other Targets: Adrenergic transporter (Adrenergic transporter): transporter (299 nM
EC50 [2, 9]: 2.5 µM
IC50 ([2]; Rattus norvegicus, Hippocampal neuron, Table 11D, read-out: Membrane trafficking IC50): 2500 nM
Functional Neuronal Phenotype ([2]; Table 11C): Antagonist
Functional Neuronal Phenotype ([2]; Table 11D): Antagonist
Other Targets: Dopamine transporter (Dopamine transporter): transporter (1.5 nM
Ki (Sigma-1 receptors [3]; Table 11C, read-out: S1 binding Ki): 13 nM
Ki (Sigma-1 receptors [3]; Table 11D, read-out: Sigma-1 Receptor Ki): 13 nM
Ki (Sigma-1 receptors [3]; known prior art compounds, published studies, read-out: Sigma 1 Binding Ki): 13 nM
Sigma 1 (Type of Activity) (Sigma-1 receptors [1]; known prior art compounds): (agonist)
Ki (Sigma-2 receptors): 710 nM
Other Targets: serotonin transporter (serotonin transporter): nM), Serotonin (12

CC(C)=CCN1CCC2(C)c3cc(O)ccc3CC1C2C (centres unmarked) [Pentazocine, pentazocine]
Other Targets: NMDAR2B (NMDAR2B): NMDAR2B (2.5 uM
Other Targets: 2A (NMDAR2A) (NMDAR2A): uM), 2A (2.7 uM),
Other Targets: PCP (PCP): PCP (2.9 uM)
Ki (sigma-2 receptor [8]): > 5000 nM
EC50 ([2]; Rattus norvegicus, Hippocampal neuron, read-out: Inhibition Abeta oligomer-induced Membrane Trafficking EC50 (uM)): 7.6 µM
Functional Neuronal Phenotype ([2]; Table 11C): Antagonist
Ki (Sigma-2 receptors): 5000 nM
